Assay results: ChEMBL document CHEMBL5331078, “1-Benzyloxy-5-phenyltetrazole derivatives highly active against androgen receptor-dependent prostate cancer cells” (Eur J Med Chem, 2023)
The source made the active and inactive calls. No cut-off for these calls is given here.

How the values were obtained:
CWR22R [1] = assay: Antiproliferative activity against AR-v7 positive human 22Rv1 cells measured after 3 days by celltiter-glo luminescence assay; assay type: functional, cell-based; details: Homo sapiens, 22Rv1, 72 h; read-out: IC50
PC-3 = assay: Antiproliferative activity against human PC-3 cells measured after 3 days by celltiter-glo luminescence assay; assay type: functional, cell-based; details: PC-3, 72 h
[2] = Antiproliferative activity against Ar-luc mouse Adipose stromal cell measured after 3 days by celltiter-glo luminescence assay; assay type: toxicity, cell-based; details: Ar-luc mouse adipose stromal cells
Papain = target: T1, Papain (Carica papaya, UniProt P00784); assay: Inhibition of papaya papain protease activity assessed as covalent binding mode of action at 10 uM incubated for 30 mins by absorbance based analysis; details: 0.5 h
T1 sequence (P00784 whole entry): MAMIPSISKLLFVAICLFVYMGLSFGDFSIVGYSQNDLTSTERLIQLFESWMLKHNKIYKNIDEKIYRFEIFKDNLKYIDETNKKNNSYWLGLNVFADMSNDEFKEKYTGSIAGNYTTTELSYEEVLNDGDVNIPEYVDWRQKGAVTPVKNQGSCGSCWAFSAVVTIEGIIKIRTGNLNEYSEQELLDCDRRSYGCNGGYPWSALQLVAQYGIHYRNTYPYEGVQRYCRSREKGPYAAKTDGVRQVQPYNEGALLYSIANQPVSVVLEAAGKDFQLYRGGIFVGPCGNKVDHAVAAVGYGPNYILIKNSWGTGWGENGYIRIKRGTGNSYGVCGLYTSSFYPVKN

[3] = Half life in rat at 5 mg/kg, iv measured upto 24 hrs by LC-MS/MS analysis; assay type: ADME, organism-based; details: in vivo
[4] = MRT (0 to infinity) in rat at 5 mg/kg, iv measured upto 24 hrs by LC-MS/MS analysis; assay type: ADME, organism-based; details: in vivo
[5] = MRT (0 to t) in rat at 5 mg/kg, iv measured upto 24 hrs by LC-MS/MS analysis; assay type: ADME, organism-based; details: in vivo
[6] = AUC (0 to t) in rat at 5 mg/kg, iv measured upto 24 hrs by LC-MS/MS analysis; assay type: ADME, organism-based; set-up: dose 5 mg/kg, time < 24 hrs, route iv; details: in vivo
[7] = AUC (0 to infinity) in rat at 5 mg/kg, iv measured upto 24 hrs by LC-MS/MS analysis; assay type: ADME, organism-based; set-up: time < 24 hrs, dose 5 mg/kg, route iv; details: in vivo
[8] = Volume of distribution at steady state in rat at 5 mg/kg, iv measured upto 24 hrs by LC-MS/MS analysis; assay type: ADME, organism-based; details: in vivo, read-out: Vdss
CWR22R [9] = assay: Antitumor activity against human 22Rv1 cells xenografted in NOD-SCID mouse assessed as inhibition of tumor growth at 10 mg/kg/day, ip measured upto 20 days; assay type: functional, organism-based; details: time <= 20.0 day
[10] = Toxicity in NOD-SCID mouse assessed as effect on body weight loss at 10 mg/kg/day, ip measured upto 20 days; assay type: organism-based; details: in vivo, 480 h, time < 20 day
[11] = Partition coefficient, logD of the compound at pH 7.4 by HPLC analysis; assay type: physicochemical; details: octanol/water
[12] = Kinetic solubility of the compound in 0.01 M HCl at pH 2 after 30 mins by nephelometry; assay type: physicochemical; details: read-out: Kinetic_solubility
[13] = Kinetic solubility of the compound in phosphate buffer at pH 6.5 after 30 mins by nephelometry; assay type: physicochemical; details: read-out: Kinetic_solubility
[14] = Metabolic stability in mouse liver microsomes assessed as half life incubated for 60 mins in presence of NADPH-regenerating system; assay type: ADME, Microsome; details: liver microsomes
[15] = Metabolic stability in mouse liver microsomes assessed as intrinsic clearance incubated for 60 mins in presence of NADPH-regenerating system; assay type: ADME, Microsome; details: liver microsomes, read-out: CLH
CWR22R [16] = assay: Downregulation of androgen receptor in human 22Rv1 cells measured for 24 to 36 hrs by Western blot analysis; assay type: functional, cell-based; details: dose 0.5-10 µM, time 24-36 hrs
CWR22R [17] = assay: Downregulation of androgen receptor in human 22Rv1 cells at 0.5 to 10 uM by Western blot analysis; assay type: functional, cell-based; details: dose 0.5-10 µM, time 24-36 hrs, TDE = time-dependent effect
CWR22R [18] = assay: Downregulation of AR-v7 level in human 22Rv1 cells measured for 24 to 36 hrs by Western blot analysis; assay type: functional, cell-based; details: dose 0.5-10 µM, time 24-36 hrs
CWR22R [19] = assay: Downregulation of AR-v7 level in human 22Rv1 cells at 0.5 to 10 uM by Western blot analysis; assay type: functional, cell-based; details: dose 0.5-10 µM, time 24-36 hrs, TDE = time-dependent effect
CWR22R [20] = assay: Downregulation of AR-v7 level in human 22Rv1 cells at 0.5 to 10 uM measured after 36 hrs by Western blot analysis; assay type: functional, cell-based; details: dose 0.5-10 µM
CWR22R [21] = assay: Downregulation of Androgen receptor level in human 22Rv1 cells at 0.5 to 10 uM measured after 36 hrs by Western blot analysis; assay type: functional, cell-based; details: dose 0.5-10 µM
CWR22R [22] = assay: Downregulation of CDC6 gene expression in human 22Rv1 cells at 1 uM measured after 24 to 36 hrs by RNA sequencing analysis; assay type: functional, cell-based; details: time 24-36 hrs
CWR22R [23] = assay: Downregulation of E2F gene expression in human 22Rv1 cells at 1 uM measured after 24 to 36 hrs by RNA sequencing analysis; assay type: functional, cell-based; details: time 24-36 hrs
CWR22R [24] = assay: Downregulation of DDC gene expression in human 22Rv1 cells at 1 uM measured after 24 to 36 hrs by RNA sequencing analysis; assay type: functional, cell-based; details: time 24-36 hrs
CWR22R [25] = assay: Downregulation of SKP2 gene expression in human 22Rv1 cells at 1 uM measured after 24 to 36 hrs by RNA sequencing analysis; assay type: functional, cell-based; details: time 24-36 hrs
CWR22R [26] = assay: Downregulation of POLE2 gene expression in human 22Rv1 cells at 1 uM measured after 24 to 36 hrs by RNA sequencing analysis; assay type: functional, cell-based; details: time 24-36 hrs
CWR22R [27] = assay: Downregulation of UHRF1 gene expression in human 22Rv1 cells at 1 uM measured after 24 to 36 hrs by RNA sequencing analysis; assay type: functional, cell-based; details: time 24-36 hrs
CWR22R [28] = assay: Downregulation of MCM10 gene expression in human 22Rv1 cells at 1 uM measured after 24 to 36 hrs by RNA sequencing analysis; assay type: functional, cell-based; details: time 24-36 hrs
CWR22R [29] = assay: Downregulation of GINS1 gene expression in human 22Rv1 cells at 1 uM measured after 24 to 36 hrs by RNA sequencing analysis; assay type: functional, cell-based; details: time 24-36 hrs
CWR22R [30] = assay: Downregulation of CDC7 gene expression in human 22Rv1 cells at 1 uM measured after 24 to 36 hrs by RNA sequencing analysis; assay type: functional, cell-based; details: time 24-36 hrs
CWR22R [31] = assay: Downregulation of PCNA gene expression in human 22Rv1 cells at 1 uM measured after 24 to 36 hrs by RNA sequencing analysis; assay type: functional, cell-based; details: time 24-36 hrs
CWR22R [32] = assay: Downregulation of E2F1 gene expression in human 22Rv1 cells at 1 uM measured after 24 to 36 hrs by RNA sequencing analysis; assay type: functional, cell-based; details: time 24-36 hrs
CWR22R [33] = assay: Downregulation of RRM2 gene expression in human 22Rv1 cells at 1 uM measured after 24 to 36 hrs by RNA sequencing analysis; assay type: functional, cell-based; details: time 24-36 hrs
CWR22R [34] = assay: Downregulation of MTBP gene expression in human 22Rv1 cells at 1 uM measured after 24 to 36 hrs by RNA sequencing analysis; assay type: functional, cell-based; details: time 24-36 hrs
CWR22R [35] = assay: Downregulation of MYC gene expression in human 22Rv1 cells at 1 uM measured after 24 to 36 hrs by RNA sequencing analysis; assay type: functional, cell-based; details: time 24-36 hrs
CWR22R [36] = assay: Downregulation of DNMT1 gene expression in human 22Rv1 cells at 1 uM measured after 24 to 36 hrs by RNA sequencing analysis; assay type: functional, cell-based; details: time 24-36 hrs

`Clc1ccc(COn2nnnc2-c2ccc(Cl)cc2)cc1` showed an IC50 (CWR22R [1]) of 0.011 µM, an IC50 (PC-3) greater than 100 µM and an IC50 at 3 days [2] greater than 100 µM. For the same compound, the “inhibition (INH)” value (Papain) was “Not Active”, the half-life [3] was 55.1 min and the MRT inf [4] was 20.2 min. For the same compound, the MRT last at 24 h [5] was 16.3 min, the AUC(0-t) at 24 h [6] was 1080 ng·h/mL and the AUC(0-inf) [7] was 1100 ng·h/mL. The Vd [8] was 1.53 L/kg, the Activity (CWR22R [9]) was “Active” and the Activity [10] was “Non-Toxic”. It also gave a logD [11] of 4.5, a solubility kinetic at 0.5 h [12] of less than 1.6 µg/mL and a solubility kinetic at 0.5 h [13] of less than 1.6 µg/mL. For the same compound, the half-life [14] was 21 min, the microsomal CLint [15] was 21 µL/min/mg and the Activity (CWR22R [16]) was “Dose-Dependent Effect”. The Activity (CWR22R [17]) was “Tde”, the Activity (CWR22R [18]) was “Dose-Dependent Effect” and the Activity (CWR22R [19]) was “Tde”. The Activity (CWR22R [20]) was “Active”, the Activity (CWR22R [21]) was “Active” and the Activity (CWR22R [22]) was “Active”. For the same compound, the Activity (CWR22R [23]) was “Active”, the Activity (CWR22R [24]) was “Active” and the Activity (CWR22R [25]) was “Active”. The Activity (CWR22R [26]) was “Active”, the Activity (CWR22R [27]) was “Active” and the Activity (CWR22R [28]) was “Active”. The Activity (CWR22R [29]) was “Active”, the Activity (CWR22R [30]) was “Active” and the Activity (CWR22R [31]) was “Active”. For the same compound, the Activity (CWR22R [32]) was “Active”, the Activity (CWR22R [33]) was “Active” and the Activity (CWR22R [34]) was “Active”. For the same compound, the Activity (CWR22R [35]) was “Active” and the Activity (CWR22R [36]) was “Active”.
